Data reported in patent US20250034139A1, “AMINE COMPOUNDS HAVING ANTI-INFLAMMATORY, ANTIFUNGAL, ANTIPARASITIC, AND ANTICANCER ACTIVITY” (PHARMA CINQ, LLC, priority 2013, published 2025).
≈ marks a conversion by molar mass, not a printed value.

Assays:
THP-1 cells [1] = assay: Example D: LPS-triggered THP-1 cell death assay, acute/5-hour and chronic/48-hour; type: cell-based, Human; conditions: for Viable cell percent change, Chronic/48-hour, Mean: 10 ng/ml LPS, 0.1 μM test compound; for activity relative to AC in the LPS-triggered THP-1 cell death assay, in words: 0.1 μM, 5-hour and 48-hour time points
Procedure: Compounds of the invention were tested at 0.1 μM versus AC in the LPS-triggered THP-1 cell death assay. Both acute/5-hour and chronic/48-hour phases of cell death were assessed. Compounds were screened in batches with DMSO as the negative control and AC as the high activity control.

[2] = tested on: 4T1 murine breast cancer cells; assay: Example S: in vitro anticancer screen, 4T1 cells, Wst1; type: cell-based, mouse; conditions: Mus musculus, 4T1, 18 h, 18 hr, Wst1; for viability at 1 µM: read-out: 4T1 1 μM, percent of cancer cell survival relative to vehicle treated cells; for viability at 5 µM: read-out: 4T1 5 μM, percent of cancer cell survival relative to vehicle treated cells
Method in brief: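 Read-out is Wst1 absorbance (450 nm, reference 630 nm) after roughly 2 hr dye incubation, giving percent cell survival versus vehicle. Before that, compounds at 1 μM or 5 μM were applied for 18 hr to 4T1 cells plated at 1×10^4 per well.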

Trichophyton rubrum = assay: Example J: Trichophyton rubrum growth inhibition, scoring by eye; type: cell-based; conditions: Trichophyton rubrum, 144 h; 6 days at 30° C., tested 6 to 40 μM; read-out: MIC, μM (maximum inhibition concentration, scoring by eye)
Procedure: Trichophyton grown on two agar plates were collected by scraping into 10 ml saline and filtered through 8 μm filters. […] This experiment included some active compounds from previous experiment and added several untested compounds. […] Following table listed the maximum inhibition concentration (MIC) based on scoring by eye. Scrape frozen Trichophyton culture from ATCC vial and suspended in 100 μl PDB, and then plate on a PDA plate. Incubate plate at 30 C for 4 days. The plate was covered almost full. […] Take OD of collected solution at 520 nm and 600 nm: […] Part-II: […] Add 6 μl each of diluted compound solutions per well in triplicates. […] Wrap the plates with […] incubate all plates at 30° C. for 6 days. • Take picture of the plates on KODAK imager with 17 captures of 1.5 sec/capture for total of 25.5 second exposure.

[3] = tested on: PC3 human prostate cancer cells; assay: Example S: in vitro anticancer screen, PC-3 cells, Wst1; type: cell-based; conditions: Homo sapiens, PC-3; 0.4 μM, approximately 20 hours, Wst1; read-out: PC-3, percent of cancer cell survival relative to vehicle treated cells
Method in brief: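 Values give percent survival relative to vehicle, read by Wst1 absorbance (450/630 nm) after 2 h dye incubation, in triplicate. Cells were seeded at 2×10^4/well and treated about 20 h with compound at 0.4, 0.5 or 2.5 μM, depending on compound.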

S. cerevisiae = assay: Example I: Saccharomyces cerevisiae growth inhibition (OD 600 nm); type: cell-based; conditions: Saccharomyces cerevisiae, 18 hour incubation at 30° C., OD 600 nm, XLfit; for IC50: read-out: IC50, uM (50% inhibition of fungal growth); for MIC: read-out: MIC, uM (99% of inhibition of fungal growth)
Procedure: An overnight culture of S. cerevisiae was dilution in YPD broth to concentration of 40,000/ml and 150 μl/well was plated in 96 well plates. Compounds were then added to each well with concentration ranged from 4 to 50 μM as final concentration. The plates were inoculated at 30° C. overnight with shaking at 220 rpm and absorbance at 600 nm was read after 18 hour incubation.
• 1. One days prior to the inoculum preparation, pick a single colony of S. cerevisiae from the Sabouraud Dextrose Agar plate using the inoculum loop and inoculate into a 50 mL tube containing 10 ml of YPD growth medium • 2. Incubate at 30° C. with shaking at 220 rpm for 24 hours with loosen lid to allow air in and facilitates growth. • 3. Examine an aliquot of the culture under a microscope for yeast cell morphology and lack of bacterial contamination. • 4. Dilute the overnight culture with YPD medium at 1:30 dilution (70 ul to 2.1 ml) and count the number of cells as 4,230,000/ml. • 5. Mix 620 μl of 1:30 dilution and 64.4 ml YPD to make final concentration of 40,000/ml cells • 6. Plated 144 μl/well in four 96-well plates.
• 1. From 10 mM DMSO stock solutions, make serial dilutions of compounds to 0.1, 0.2, 0.3, 0.63 and 1.25 mM solutions • 2. Add 6 μl each of diluted compound solutions per well in duplicates. The final concentrations were 0, 4, 8, 12, 25 and 50 micromolar. • 3. Incubated all plates at 30 C for overnight (˜18 hours) with 220 rpm shaking. • 4. Read absorbance at OD600 for each plate on Spectra Max Plus plate reader. • 5. Calculate the % inhibition of each compound against the DMSO treated cell and plotted.

[4] = tested on: PC-3 prostate cancer cells; assay: Example T: sensitisation of PC-3 cells to doxorubicin, oxaliplatin, paclitaxel or vincristine, Wst1; type: cell-based, human; conditions: PC-3 cells, 72 hours; for viability at 0.4 µM: Homo sapiens, compound 0.4 μM alone, Wst1, vehicle = 100, read-out: No Chemo: percent cell survival; for Doxorubicin 3.5 μM: percent cell survival: compound 0.4 μM + doxorubicin 3.5 μM; for Doxorubicin 3.5 μM: percent cell survival / Oxaliplatin 100 μM: percent cell survival / Paclitaxel 50 μM: percent cell survival / Vincristine 100 nM: percent cell survival: chemotherapy agent alone normalized to 100%; for Oxaliplatin 100 μM: percent cell survival: compound 0.4 μM + oxaliplatin 100 μM; for Paclitaxel 50 μM: percent cell survival: compound 0.4 μM + paclitaxel 50 μM; for Vincristine 100 nM: percent cell survival: compound 0.4 μM + vincristine 100 nM
[5] = tested on: Candida albicans strain 3153; assay: Example H: Candida albicans growth inhibition (OD 600 nm); type: cell-based; conditions: for MIC: Candida albicans, 3153, 24 hrs at 30° C., YPD, XLfit, read-out: MIC (uM) (99% of inhibition of fungal growth); for IC50: Candida albicans, 3153, read-out: IC50 (uM) (50% inhibition of fungal growth), 24 hrs at 30° C., YPD, XLfit
Method in brief: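 Growth inhibition computed as % versus DMSO control from OD600 after ~24 h at 30° C. Inoculum: washed overnight YPD culture of strain 3153 at 3.5×10^4 CFU/ml in YPD; final compound concentrations 0, 5, 10, 16, 22, 30, 40 μM, duplicate wells.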

THP-1 cells [6] = assay: Example C: compound screen, viable THP-1 cell count after 5 hours +/- LPS; type: cell-based, Human; conditions: for ability to inactivate pro-inflammatory THP-1 cells, in words (relative to benchmark AC): LPS-treated THP-1 cells
Description: Background: THP-1 is a human acute myeloid leukemia (AML) cell line that can be induced into a macrophage-like cell with vitamin-D3 (vit-D3). In the macrophage, LPS (lipopolysaccharide; endotoxin) stimulation of toll-like receptor 4 (TLR-4) leads to NF-κB activation and secretion of inflammatory cytokines but also the priming of programmed death pathways through RIP and Caspase 8. The balance of this complex regulatory network is dependent on highly specific kinases, enzymes that require ATP. Disruption of either cytosolic pH or ATP availability/energy level uncouples this control network and the can macrophage shift away from production of inflammatory cytokines towards a programmed death event, which has the net effect of limiting inflammatory damage.

| Compound | Viable cell percent change, Chronic/48-hour, Mean (THP-1 cells [1]) [%] | activity relative to AC in the LPS-triggered THP-1 cell death assay, in words (THP-1 cells [1]) | viability at 1 µM [2] [%] | viability at 5 µM [2] [%] | MIC (Trichophyton rubrum) [µM] | viability at 0.4 µM [3] [%] | IC50 (S. cerevisiae) [µM] | MIC (S. cerevisiae) [µM] | viability at 0.4 µM [4] [%] | Doxorubicin 3.5 μM: percent cell survival [4] [%] | Oxaliplatin 100 μM: percent cell survival [4] [%] | Paclitaxel 50 μM: percent cell survival [4] [%] | Vincristine 100 nM: percent cell survival [4] [%] | MIC [5] [µM] | IC50 [5] [µM] | Reduction in viable THP-1 cell count (percent change) from 0 hours, Mean ± SE (THP-1 cells [6]; Compound (0.1 μM), No LPS) [%] | Reduction in viable THP-1 cell count (percent change) from 0 hours, Mean ± SE (THP-1 cells [6]; Compound (0.1 μM), Plus LPS) [%] | Reduction in viable THP-1 cell count (percent change) from 0 hours, Mean ± SE (THP-1 cells [6]; Compound (1.0 μM), No LPS) [%] | Reduction in viable THP-1 cell count (percent change) from 0 hours, Mean ± SE (THP-1 cells [6]; Compound (1.0 μM), Plus LPS) [%] | ability to inactivate pro-inflammatory THP-1 cells, in words (relative to benchmark AC) (THP-1 cells [6]) |
| --- | --- | --- | --- | --- | --- | --- | --- | --- | --- | --- | --- | --- | --- | --- | --- | --- | --- | --- | --- | --- |
| c1ccc(OCCCCCCCCNc2ccnc3ccccc23)cc1 [AN, N-(8-Phenoxyoctyl)quinolin-4-amine] | 31.66 | equivalent activity to AC at both the 5-hour and 48-hour time points | 26.6 | 50.3 | 18 (≈ 6.27 µg/mL) | 75.9 | 19.1 | 24.3 (≈ 8.45 µg/mL) | 75.9 | 28.2 | 24.7 | 45.8 | 67.3 |  |  |  |  |  |  |  |
| CCCCCCc1ccc(Nc2ccnc3ccccc23)cc1 [AO, N-(4-Hexylphenyl)quinolin-4-amine] | 25.19 |  | 28.9 | 18.6 | > 40 | 35 |  |  | 35 | 80.7 | 91 | 93.1 | 91.1 | 84.9 (≈ 25.9 µg/mL) | 34.7 |  |  |  |  |  |
| CCCCCCOC(=O)c1ccc(Nc2ccnc3ccccc23)cc1 [AP, Hexyl 4-(quinolin-4-ylamino)benzoate] | 37.38 |  | 110 | 246 | ~40 (≈ 13.9 µg/mL) |  | 26.3 | 46.5 (≈ 16.2 µg/mL) |  |  |  |  |  | 42 (≈ 14.6 µg/mL) | 25 |  |  |  |  |  |
| CCCCCCNC(=O)c1ccc(Nc2ccnc3ccccc23)cc1 [AQ, N-Hexyl-4-(quinolin-4-ylamino)benzamide] | 24.71 |  | 94.8 | 92.7 | > 40 |  |  |  |  |  |  |  |  |  | 41.2 |  |  |  |  |  |
| CCCCCCOc1ccc(Nc2ccnc3ccccc23)c(F)c1 [BL, N-[2-Fluoro-4-(hexyloxy)phenyl]quinolin-4-amine] | 32.33 |  |  |  | > 40 | 106 |  |  | 106 | 135.5 | 120 | 141.4 | 111.2 | 44.8 (≈ 15.2 µg/mL) | 33.5 |  |  |  |  |  |
| COCCCCCCCCNc1ccnc2ccccc12 [CJ, N-(8-Methoxyoctyl)quinolin-4-amine] | 15.44 | more active than AC at the chronic/48-hour time point | 22.6 | 24.1 |  | 53.7 |  |  | 53.7 | 18.9 | 19.7 | 51.7 | 16.9 |  |  | −5.53 ± 3.89 | −30.15 ± 4.41 | −6.99 ± 1.55 | −41.62 ± 1.80 | higher activity than the active benchmark compound AC |
| COc1ccc(OCCCCCCNc2ccnc3ccccc23)cc1 [Compound CX, N-[6-(4-Methoxyphenoxy)hexyl]quinolin-4-amine] | 8.50 | more active than AC at the chronic/48-hour time point | 25.1 | 20.7 |  | 45.9 |  |  | 45.9 | 21.7 | 22.2 | 48.2 | 38.1 |  |  | −8.00 ± 1.41 | −38.09 ± 0.41 | −9.20 ± 3.09 | −49.57 ± 2.44 | higher activity than the active benchmark compound AC |
